Measured values published in ChEMBL document CHEMBL1145280, “Control of hepatitis C: a medicinal chemistry perspective” (J Med Chem, 2005).
Non-standard residues stand in square brackets, D forms with d. Residues, ends and D or L forms follow the SMILES beside them. *: point of attachment. Dip = N[C@H](C(=O)O)C(c1ccccc1)c1ccccc1; Hyp = O=C(O)[C@@H]1C[C@@H](O)CN1; Tic = O=C(O)[C@@H]1Cc2ccccc2CN1; X1 = O=C(O)C(=O)[C@H](CC(F)F)N*; Cha = N[C@@H](CC1CCCCC1)C(=O)O; Nle = CCCC[C@H](N)C(=O)O; Bn = c1ccc(C*)cc1

Key:
Genome polyprotein = Genome polyprotein (Hepatitis C virus genotype 1a (isolate 1) (HCV), UniProt P26664); assay: Inhibitory concentration against hepatitis C virus polymerase; parameters: species or system Hepacivirus hominis
Sequence of Genome polyprotein (P26664 2421-3011 limits assumed): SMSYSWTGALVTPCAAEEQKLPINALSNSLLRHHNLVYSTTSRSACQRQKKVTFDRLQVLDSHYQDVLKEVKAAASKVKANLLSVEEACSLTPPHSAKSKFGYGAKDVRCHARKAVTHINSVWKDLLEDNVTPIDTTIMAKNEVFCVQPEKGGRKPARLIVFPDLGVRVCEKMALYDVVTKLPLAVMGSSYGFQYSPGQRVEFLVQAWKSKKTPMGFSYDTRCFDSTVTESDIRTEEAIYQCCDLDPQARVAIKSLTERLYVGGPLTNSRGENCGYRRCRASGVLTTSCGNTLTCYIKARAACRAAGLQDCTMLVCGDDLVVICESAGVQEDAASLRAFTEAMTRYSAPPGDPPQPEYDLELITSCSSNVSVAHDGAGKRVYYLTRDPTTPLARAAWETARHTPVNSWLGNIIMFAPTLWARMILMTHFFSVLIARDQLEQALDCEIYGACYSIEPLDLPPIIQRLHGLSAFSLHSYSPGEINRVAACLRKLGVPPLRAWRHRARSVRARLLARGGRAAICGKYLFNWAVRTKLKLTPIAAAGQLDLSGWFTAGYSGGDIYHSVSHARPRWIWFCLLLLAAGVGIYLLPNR

[1] = test system: Internal ribosome entry site (IRES); assay: Inhibitory concentration against hepatitis C virus internal ribosomal entry site; type: nucleic-acid assay, Hepacivirus hominis
NS3 [2] = target: T1, NS3 (Hepatitis C virus, UniProt A3EZJ3); assay: Inhibitory constant against hepatitis C virus NS3 protease; parameters: species or system Hepacivirus hominis
T1 sequence (A3EZJ3 whole entry): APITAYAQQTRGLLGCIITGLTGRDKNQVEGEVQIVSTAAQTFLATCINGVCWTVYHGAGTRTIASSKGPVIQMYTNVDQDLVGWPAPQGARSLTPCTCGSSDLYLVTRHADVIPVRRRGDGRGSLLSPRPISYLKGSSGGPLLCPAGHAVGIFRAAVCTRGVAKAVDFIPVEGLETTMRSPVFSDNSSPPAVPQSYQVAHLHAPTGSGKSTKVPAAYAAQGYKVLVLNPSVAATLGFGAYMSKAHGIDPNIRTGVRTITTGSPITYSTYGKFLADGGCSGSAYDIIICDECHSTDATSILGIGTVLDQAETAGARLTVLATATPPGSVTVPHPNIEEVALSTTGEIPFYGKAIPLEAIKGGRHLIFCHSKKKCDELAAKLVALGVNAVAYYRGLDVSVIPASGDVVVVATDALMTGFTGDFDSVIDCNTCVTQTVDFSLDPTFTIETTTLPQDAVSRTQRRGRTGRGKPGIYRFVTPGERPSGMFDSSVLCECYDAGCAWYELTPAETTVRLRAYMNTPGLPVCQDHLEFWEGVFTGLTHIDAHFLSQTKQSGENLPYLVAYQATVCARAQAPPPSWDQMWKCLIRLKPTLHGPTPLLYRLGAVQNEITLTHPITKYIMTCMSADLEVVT

NS3 [3] = target: T1, NS3; assay: Inhibitory concentration against hepatitis C virus helicase; parameters: species or system Hepacivirus hominis
NS3 [4] = target: T1, NS3; assay: Inhibitory concentration against hepatitis C virus NS3 protease; parameters: species or system Hepacivirus hominis

N#Cc1ccc(Br)cc1-c1cccc(C(=O)CC(=O)C(=O)O)c1
IC50 (Genome polyprotein): 100 nM

Cc1cc2nc3ccc(N(C)C)cc3nc2cc1N
IC50 [1]: 20 nM

Ac-DEMEEC-OH
Ki (NS3 [2]): 600 nM

NC(=O)c1ncn([C@@H]2O[C@H](CO[P@@](=O)(O)O[P@](=O)(O)OP(=O)(O)O)[C@@H](O)[C@H]2O)n1 [RTP]
IC50 (NS3 [3]): 180000 nM

Nc1ccc2nc3ccc(N)cc3[s+]c2c1 [THIONIN ACETATE]
IC50 [1]: 2860 nM

O=C1NNC(=O)c2c(ncn2[C@H]2O[C@@H](COP(=O)(O)OP(=O)(O)OP(=O)(O)O)[C@H](O)[C@@H]2O)N1
IC50 (NS3 [3]): 1500 nM

C=C[C@H]1C[C@]1(NC(=O)[C@@H]1C[C@@H](Oc2cc(-c3ccccc3)nc3ccccc23)CN1C(=O)[C@@H](NC(=O)[C@@H](NC(C)=O)C1CCCCC1)C(C)C)C(=O)O
IC50 (NS3 [4]; read-out: IC50): 13 nM

O=C(NCc1ccccc1Cl)Nc1ccsc1-c1nc(O)c(O)c(C(=O)O)n1
IC50 (Genome polyprotein): 100 nM

CC(C)C[C@H](NC(=O)[C@H](CC(=O)O)NC(=O)[C@H](CC1CCCCC1)NC(=O)[C@@H]1CCCC[C@H]1C(=O)O)C(N)=O
IC50 (NS3 [4]; read-out: IC50): 15000 nM

O=C(N[C@@H](Cc1c[nH]c2ccccc12)C(=O)O)c1ccc2c(c1)nc(-c1ccoc1)n2C1CCCCC1
IC50 (Genome polyprotein): < 1000 nM

O=C(O)c1ccc2c(c1)nc(-c1ccc(OCc3cc(C(=O)N4CCC(O)CC4)ccc3-c3ccc(Cl)cc3)cc1F)n2C1CCCCC1
IC50 (Genome polyprotein): < 10000 nM

Brc1c(Br)c(Br)c2[nH]nnc2c1Br [TETRABROMOBENZOTRIAZOLE]
IC50 (NS3 [3]): 20000 nM

O=C(O)c1ccc2c(c1)nc(-c1ccccn1)n2C1CCCCC1
IC50 (Genome polyprotein): 4300 nM

Ac-DDIVPC-OH
IC50 (NS3 [4]; read-out: IC50): 71000 nM

O=C1C=C2C(=CCOC2OC(=O)c2cccc(Br)c2)O1 (stereo unspecified)
IC50 (NS3 [4]; read-out: IC50): 12600 nM

CCCC[C@H](NC(=O)[C@@H]1Cc2ccccc2CN1C(=O)[C@H](CS)NC(=O)[C@H](CC1CCCCC1)NC(=O)[C@@H](NC(=O)[C@@H](NC(=O)[C@H](CCC(=O)O)NC(=O)[C@H](CC(=O)O)NC(C)=O)C(c1ccccc1)c1ccccc1)[C@@H](C)CC)C(=O)N[C@@H](CO)C(=O)N[C@@H](Cc1ccc(O)cc1)C(N)=O (Ac-DE[Dip]I[Cha]C[Tic][Nle]SY-NH2)
IC50 (NS3 [4]; read-out: IC50): 100 nM

CC(=O)N[C@@H](CC(=O)O)C(=O)N[C@@H](CCC(=O)O)C(=O)N[C@H](C(=O)N[C@@H](CCC(=O)O)C(=O)N[C@@H](CC1CCCCC1)C(=O)N[C@@H](CS)C(=O)O)C(c1ccccc1)c1ccccc1 (Ac-DE[Dip]E[Cha]C-OH)
Ki (NS3 [2]): 40 nM

CCCC[C@H](NC(=O)[C@@H]1CCCN1C(=O)[C@H](CS)NC(=O)[C@H](CC1CCCCC1)NC(=O)[C@@H](NC(=O)[C@@H](NC(=O)[C@H](CCC(=O)O)NC(=O)[C@H](CC(=O)O)NC(C)=O)C(c1ccccc1)c1ccccc1)[C@@H](C)CC)C(=O)N[C@@H](CC(=O)O)C(=O)N[C@H](C(N)=O)C(C)C (Ac-DE[Dip]I[Cha]CP[Nle]DV-NH2)
IC50 (NS3 [4]; read-out: IC50): 1800 nM

COc1cccc2c1C(=O)c1c(O)c3c(c(O)c1C2=O)C[C@@](O)(C(=O)CO)C[C@@H]3O[C@H]1C[C@H](N)[C@@H](O)[C@H](C)O1 [EPIRUBICIN]
IC50 (NS3 [3]): 750 nM

Nc1nc(=O)c2c(ncn2COCCOCc2ccccc2)c(=O)[nH]1
IC50 (NS3 [3]): 5500 nM

CN(C)c1ccc(C(=O)c2ccc(N(C)C)cc2)cc1 [MICHLER'S KETONE]
IC50 [1]: > 10000 nM

CC[C@H](C)[C@H](NC(=O)[C@@H](NC(=O)[C@H](CCC(=O)O)NC(=O)[C@H](CC(=O)O)NC(C)=O)C(c1ccccc1)c1ccccc1)C(=O)N[C@@H](CC1CCCCC1)C(=O)N[C@@H](CS)C(=O)N1CCC[C@H]1C(=O)N[C@@H](CC1CCCCC1)C(=O)N[C@@H](CC(=O)O)C(=O)N[C@H](C(N)=O)C(C)C (Ac-DE[Dip]I[Cha]CP[Cha]DV-NH2)
IC50 (NS3 [4]; read-out: IC50): 1300 nM

CC(=O)OCCC/C(=C1/SC(=S)N(CC(=O)O)C1=O)c1ccc(Br)cc1
IC50 (NS3 [4]): 6.4 µg/mL

CC[C@H](C)[C@H](NC(=O)OC(C)(C)C)C(=O)N[C@@H](CC(C)C)C(=O)N[C@@H](CC(F)F)C(=O)C(=O)O
IC50 (NS3 [4]; read-out: IC50): 1000 nM

CC(=O)N[C@@H](CC(=O)O)C(=O)N[C@@H](CCC(=O)O)C(=O)N[C@@H](CC1CCCCC1)C(=O)N[C@H](C(=O)N1C[C@H](OCc2ccccc2)C[C@H]1C(=O)N[C@@H](CS)C(=O)O)C(C)C (Ac-DE[Cha]V[Hyp](Bn)C-OH)
IC50 (NS3 [4]; read-out: IC50): 33 nM

OC[C@H]1O[C@@H](n2nnc3cc(Cl)c(Cl)cc32)[C@H](O)[C@@H]1O
IC50 (NS3 [3]): 1500 nM

CCCCCCCCCCCCCNC(=O)c1c(O)cc(O)c([N+](=O)[O-])c1O
IC50 (NS3 [4]; read-out: IC50): 5800 nM

Nc1ccc(Nc2ccc(N)cc2)cc1
IC50 [1]: > 10000 nM

N=c1nc(N)c2ncn([C@H]3O[C@@H](COP(=O)(O)OP(=O)(O)OP(=O)(O)O)[C@H](O)[C@@H]3O)c2c(N)n1
IC50 (NS3 [3]): 550 nM

CCCC[C@H](NC(=O)[C@@H]1Cc2ccccc2CN1C(=O)[C@H](CS)NC(=O)[C@H](CC(C)C)NC(=O)[C@@H](NC(=O)[C@@H](NC(=O)[C@H](CCC(=O)O)NC(=O)[C@H](CCC(=O)O)NC(C)=O)C(C)C)C(C)C)C(=O)N[C@@H](CO)C(=O)N[C@@H](Cc1ccc(O)cc1)C(N)=O (Ac-EEVVLC[Tic][Nle]SY-NH2)
IC50 (NS3 [4]; read-out: IC50): 1000 nM

NC(=O)c1ncn([C@@H]2O[C@H](COP(=O)(O)OP(=O)(O)O)[C@@H](O)[C@H]2O)n1
IC50 (NS3 [3]): 250000 nM

CC[C@H](C)[C@H](NC(=O)OCc1ccccc1)C(=O)N[C@@H](CC(C)C)C(=O)N[C@@H](CC(F)F)C(=O)C(=O)O
IC50 (NS3 [4]; read-out: IC50): 1700 nM

COC(=O)[C@@H]1c2cc3c(c(O)c2[C@@H](O[C@@H]2O[C@@H](C)[C@H](OC)[C@@](C)(OC)[C@H]2OC)C[C@]1(C)O)C(=O)c1c(O)cc2c(c1C3=O)O[C@@H]1O[C@@]2(C)[C@H](O)[C@@H](N(C)C)[C@@H]1O [NOGALAMYCIN]
IC50 (NS3 [3]): 100 nM

CCN(CC)c1ccc2[o+]c3cc(C)c(N)cc3nc2c1
IC50 [1]: 1000 nM

Nc1ccc2[nH]c3ccc(N)cc3c2c1
IC50 [1]: > 10000 nM

CC(=O)N[C@@H](CC(=O)O)C(=O)N[C@@H](CCC(=O)O)C(=O)N[C@@H](CC1CCCCC1)C(=O)N[C@H](C(=O)N1C[C@@H](OCc2ccccc2)C[C@H]1C(=O)NC1(C(=O)O)CC1)C(C)C
IC50 (NS3 [4]; read-out: IC50): 51 nM

CN(C)c1ccc(Nc2ccc(N(C)C)cc2)cc1
IC50 [1]: 2190 nM

N#Cc1c(Cl)cc(Cl)cc1-c1cccc(C(=O)CC(=O)C(=O)O)c1
IC50 (Genome polyprotein): 45 nM

CC(C)COC(=O)N[C@@H](CCC(=O)O)C(=O)N[C@@H](CC(C)C)C(=O)N[C@@H](CC(F)F)C(=O)NCCc1ccc(C(=O)O)cc1Cl
Ki (NS3 [2]): 600 nM

O=C(O)C(=O)CC(=O)c1ccccc1
IC50 (Genome polyprotein): 5700 nM

CC(C)CCn1c(=O)c(C2=NS(=O)(=O)c3ccccc3N2)c(O)c2ccccc21
IC50 (Genome polyprotein): 800 nM

Nc1ccc2c(c1)Oc1ncc(N)cc1C(=O)N2
IC50 [1]: > 10000 nM

N#Cc1c(Cl)cccc1-c1cccc(C(=O)CC(=O)C(=O)O)c1
IC50 (Genome polyprotein): 110 nM

CC(=O)N[C@@H](CC(=O)O)C(=O)N[C@@H](CCC(=O)O)C(=O)N[C@H](C(=O)N[C@@H](CCC(=O)O)C(=O)N[C@@H](CC1CCCCC1)C(=O)N[C@@H](CC(F)F)C(=O)C(=O)O)C(c1ccccc1)c1ccccc1 (Ac-DE[Dip]E[Cha]-X1)
Ki (NS3 [2]): 10 nM

O=C(Nc1ccc(Oc2ccc(Cl)c3ccccc23)c(Cl)c1)c1cc(Cl)ccc1NS(=O)(=O)c1ccc(Cl)cc1
IC50 (NS3 [4]; read-out: IC50): 6500 nM

O=C(CCCCC(=O)Nc1ccc(-c2nc3ccccc3[nH]2)cc1)Nc1ccc(-c2nc3ccccc3[nH]2)cc1
IC50 (NS3 [3]): 700 nM

Nc1nc(=O)c2c(ncn2C2O[C@H](CO)C(O)C2O)c(=O)[nH]1 (single isomer, unassigned)
IC50 (NS3 [3]): 12000 nM

c1cc(CN2CCC(C3=NC4CCCCC4N3)CC2)ccc1CN1CCC(C2=NC3CCCCC3N2)CC1 (stereo unspecified)
IC50 (NS3 [3]): 7000 nM

CN(C)c1ccc2c(c1)Sc1cc(N(C)C)ccc1N2C(=O)c1ccccc1
IC50 [1]: > 10000 nM

N#Cc1ccc(Br)cc1Oc1ccccc1C(=O)CC(=O)C(=O)O
IC50 (Genome polyprotein): 350 nM

O=C(Nc1cc(Cl)ccc1Oc1ccc2ccccc2c1Cl)c1cc(Cl)cc(Br)c1O
IC50 (NS3 [4]; read-out: IC50): 6200 nM

COc1ccc(CCNC(=O)c2ccc3c(c2)nc(-c2ccccn2)n3C2CCCCC2)cc1OC
IC50 (Genome polyprotein): 12000 nM

CC(=O)O[C@H]1C(=O)[C@@]2(C)[C@H]([C@H](OC(=O)c3ccccc3)[C@]3(O)C[C@H](OC(=O)[C@H](O)[C@@H](NC(=O)c4ccccc4)c4ccccc4)C(C)=C1C3(C)C)[C@]1(OC(C)=O)CO[C@@H]1C[C@@H]2O [PACLITAXEL]
IC50 (NS3 [3]): > 1000 nM

O=C1NC(=S)S/C1=C/c1cc([N+](=O)[O-])ccc1Sc1ccc(Cl)cc1
IC50 (NS3 [4]; read-out: IC50): 3200 nM

Nc1ccc2c(c1)NC(=O)c1cc(N)cnc1O2
IC50 [1]: > 10000 nM

O=C(O)[C@H](Cc1ccccc1)N(Cc1cccc(C(F)(F)F)c1)C(=O)c1ccc(Cl)cc1Cl
Ki (NS3 [2]): 2200 nM

COc1ccc2c(O[C@@H]3C[C@H]4C(=O)N[C@]5(C(=O)O)C[C@H]5/C=C\CCCCC[C@H](NC(=O)OC5CCCC5)C(=O)N4C3)cc(-c3csc(NC(C)C)n3)nc2c1 [CILUPREVIR]
IC50 (NS3 [4]; read-out: IC50): 3000 nM

CC(=O)OC1OCC=C2OC(=O)C=C21 (stereo unspecified)
IC50 (NS3 [4]; read-out: IC50): 7200 nM

O=C(O)[C@H](Cc1ccccc1)N(Cc1ccc(-c2cc3ccccc3o2)s1)C(=O)c1ccc(Cl)cc1Cl
Ki (NS3 [2]): 2200 nM

CCCC(=O)c1cc2c(c(O)c1C)C(=O)C(=O)c1c(O)cccc1-2
IC50 (NS3 [4]; read-out: IC50): 7000 nM

O=C1C=C2C(=CCOC2O)O1 (stereo unspecified) [PATULIN]
IC50 (NS3 [4]; read-out: IC50): 3800 nM
